{"source": "paper PMC8029583", "about": "(ACS chemical biology, 2020)", "key": {"ComR receptor [1]": {"target": "T1, ComR receptor (Streptococcus mutans serotype c, UniProt Q8DWI6)", "assay": "β-galactosidase reporter activation", "format": "cell-based"}, "ComR receptor [2]": {"target": "T1, ComR receptor", "assay": "β-galactosidase reporter inhibition", "format": "cell-based", "conditions": "SMCOM2 in CDM; primary antagonism screening (Figure S-3)"}}, "note": "Where a SMILES comes first, the peptide text is derived from it."}
{"molecule": "CC(C)C[C@H](NC(=O)[C@H](C)NC(=O)[C@H](Cc1c[nH]c2ccccc12)NC(=O)[C@H](Cc1c[nH]c2ccccc12)NC(=O)[C@H](C)NC(=O)[C@H](CC(C)C)NC(=O)[C@H](C)N)C(=O)O", "note": "[XIP-G1AD3AS6A (P30), ALAWWAL] (H-ALAWWAL-OH)", "values": [{"measurement": "comX activation (partial agonist)", "setting": "ComR receptor [1]; SMCOM2 in CDM, from dose response curve", "value": "~ 30%"}]}
{"molecule": "CC(C)C[C@H](NC(=O)CN)C(=O)N[C@@H](CC(=O)O)C(=O)N[C@@H](Cc1c[nH]c2ccccc12)C(=O)N[C@@H](Cc1c[nH]c2ccccc12)C(=O)N[C@@H](CO)C(=O)N[C@@H](C)C(=O)O", "note": "[XIP-L7A (P8), GLDWWSA] (H-GLDWWSA-OH)", "values": [{"measurement": "inhibition of ComR activation", "setting": "ComR receptor [2]", "value": "~ 80%"}]}
{"molecule": "CC(C)C[C@H](NC(=O)[C@H](CO)NC(=O)[C@H](Cc1c[nH]c2ccccc12)NC(=O)[C@H](C)NC(=O)[C@H](CC(=O)O)NC(=O)[C@H](CC(C)C)NC(=O)CN)C(=O)O", "note": "[XIP-W4A (P5), GLDAWSL] (H-GLDAWSL-OH)", "values": [{"measurement": "inhibition of ComR activation", "setting": "ComR receptor [2]", "value": "~ 90%"}]}
{"molecule": "GLD [XIP-Des-W4W5S6L7 (P43)]", "values": [{"measurement": "activity / agonism against ComR (in words)", "setting": "ComR receptor [1]; SMCOM2 reporter in CDM", "value": "inactive"}]}
{"molecule": "GLdWWSL [XIP-d3 (P10)]", "values": [{"measurement": "activation", "setting": "ComR receptor [1]; SMCOM2 in CDM, at 100 μM concentration", "value": "~ 45%"}]}
